In publication PMC4980153 (Biochemical pharmacology, 2016):
Where “and” joins values, the source holds several entries; their conditions need not be identical. Equal entries are not always repeated. Structures can show the parent of a compound that is named as a salt. Where two headings read alike, the source gives them in different places.

Key:
[1] = biological target: (e1-BB2) BB3* loss-of-affinity chimera (Homo sapiens, UniProt P32247, E111D/G112R/H107K/H294R/T106S); assay: 125I-peptide #1 competition binding, CHOP cells; set-up: species or system mouse; settings: EC1 of BB3* replaced by EC1 of BB2, vs BB3*
(e1-BB2) BB3* loss-of-affinity chimera, sequence (P32247 whole entry T106S/H107K/E111D/G112R/H294R): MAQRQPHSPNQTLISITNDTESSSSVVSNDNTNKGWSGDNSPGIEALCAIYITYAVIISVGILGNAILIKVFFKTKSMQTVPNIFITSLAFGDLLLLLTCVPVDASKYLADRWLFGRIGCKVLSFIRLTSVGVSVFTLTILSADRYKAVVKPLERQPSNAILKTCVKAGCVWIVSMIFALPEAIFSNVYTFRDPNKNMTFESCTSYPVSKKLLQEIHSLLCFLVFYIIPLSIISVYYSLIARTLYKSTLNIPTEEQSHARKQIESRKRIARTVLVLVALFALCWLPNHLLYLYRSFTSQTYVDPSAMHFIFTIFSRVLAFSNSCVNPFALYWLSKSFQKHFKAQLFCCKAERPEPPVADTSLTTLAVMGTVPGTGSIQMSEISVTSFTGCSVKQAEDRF

[2] = biological target: (e2-BB2) BB3* loss-of-affinity chimera (Homo sapiens, UniProt P32247, D193V/E201I/E215K/H294R/K196T/K210N/K211E/L213H/L219M/L220A/M198Q/N187D/N195D/P194K/Q214P/R192H/S205P/T190P/T204A/V188L/V208H/Y189H); assay: 125I-peptide #1 competition binding, CHOP cells; set-up: species or system mouse; settings: EC2 of BB3* replaced by EC2 of BB2, vs BB3*
(e2-BB2) BB3* loss-of-affinity chimera, sequence (P32247 1-399 with the stated changes): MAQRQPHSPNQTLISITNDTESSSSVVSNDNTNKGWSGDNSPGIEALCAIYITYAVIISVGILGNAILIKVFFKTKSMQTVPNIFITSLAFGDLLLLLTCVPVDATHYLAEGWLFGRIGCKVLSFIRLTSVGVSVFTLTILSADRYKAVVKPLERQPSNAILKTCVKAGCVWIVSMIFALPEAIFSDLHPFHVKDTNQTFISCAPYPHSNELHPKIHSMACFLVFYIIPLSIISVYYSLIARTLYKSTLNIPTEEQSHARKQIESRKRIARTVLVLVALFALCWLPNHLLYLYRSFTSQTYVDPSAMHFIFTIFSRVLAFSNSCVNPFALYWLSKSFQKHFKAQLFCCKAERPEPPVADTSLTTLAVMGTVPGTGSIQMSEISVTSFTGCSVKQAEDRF

[3] = system: (e1-BB3) BB2 gain-of-affinity chimera; assay: 125I-peptide #1 competition binding, CHOP cells; set-up: species or system human, mouse; settings: EC1 of BB2 replaced by EC1 of BB3, vs wild type BB2
[4] = biological target: [H107K] BB3* receptor (Homo sapiens, UniProt P32247, H107K/H294R); assay: 125I-peptide #1 competition binding, CHOP cells
[H107K] BB3* receptor, sequence (P32247 whole entry H107K/H294R): as the sequence (P32247 whole entry T106S/H107K/E111D/G112R/H294R) above, with S106T, D111E, R112G counted along it

[5] = biological target: [H107K] wild type BB3 receptor (Homo sapiens, UniProt P32247, H107K); assay: 125I-peptide #1 competition binding, CHOP cells
[H107K] wild type BB3 receptor, sequence (P32247 whole entry H107K): as the sequence (P32247 whole entry T106S/H107K/E111D/G112R/H294R) above, with S106T, D111E, R112G, R294H counted along it

[6] = biological target: [H107D] BB3* receptor (Homo sapiens, UniProt P32247, H107D/H294R); assay: 125I-peptide #1 competition binding, CHOP cells
[H107D] BB3* receptor, sequence (P32247 whole entry H107D/H294R): as the sequence (P32247 whole entry T106S/H107K/E111D/G112R/H294R) above, with S106T, K107D, D111E, R112G counted along it

[7] = biological target: [H107F] wild type BB3 receptor (Homo sapiens, UniProt P32247, H107F); assay: 125I-peptide #1 competition binding, CHOP cells
[H107F] wild type BB3 receptor, sequence (P32247 whole entry H107F): as the sequence (P32247 whole entry T106S/H107K/E111D/G112R/H294R) above, with S106T, K107F, D111E, R112G, R294H counted along it

[8] = biological target: [H107Y] wild type BB3 receptor (Homo sapiens, UniProt P32247, H107Y); assay: 125I-peptide #1 competition binding, CHOP cells
[H107Y] wild type BB3 receptor, sequence (P32247 whole entry H107Y): as the sequence (P32247 whole entry T106S/H107K/E111D/G112R/H294R) above, with S106T, K107Y, D111E, R112G, R294H counted along it

[9] = biological target: [H107K, G112R] BB3* receptor (Homo sapiens, UniProt P32247, G112R/H107K/H294R); assay: 125I-peptide #1 competition binding, CHOP cells
[H107K, G112R] BB3* receptor, sequence (P32247 whole entry H107K/G112R/H294R): as the sequence (P32247 whole entry T106S/H107K/E111D/G112R/H294R) above, with S106T, D111E counted along it

[10] = biological target: [H107K, G112R] wild type BB3 receptor (Homo sapiens, UniProt P32247, G112R/H107K); assay: 125I-peptide #1 competition binding, CHOP cells
[H107K, G112R] wild type BB3 receptor, sequence (P32247 whole entry H107K/G112R): as the sequence (P32247 whole entry T106S/H107K/E111D/G112R/H294R) above, with S106T, D111E, R294H counted along it

[11] = biological target: [L123I] BB3* receptor (Homo sapiens, UniProt P32247, H294R/L123I); assay: 125I-peptide #1 competition binding, CHOP cells
[L123I] BB3* receptor, sequence (P32247 whole entry L123I/H294R): as the sequence (P32247 whole entry T106S/H107K/E111D/G112R/H294R) above, with S106T, K107H, D111E, R112G, L123I counted along it

[12] = biological target: [V101A] wild type BB3 receptor (Homo sapiens, UniProt P32247, V101A); assay: 125I-peptide #1 competition binding, CHOP cells
[V101A] wild type BB3 receptor, sequence (P32247 whole entry V101A): as the sequence (P32247 whole entry T106S/H107K/E111D/G112R/H294R) above, with V101A, S106T, K107H, D111E, R112G, R294H counted along it

[13] = biological target: [S124P] BB3* receptor (Homo sapiens, UniProt P32247, H294R/S124P); assay: 125I-peptide #1 competition binding, CHOP cells
[S124P] BB3* receptor, sequence (P32247 whole entry S124P/H294R): as the sequence (P32247 whole entry T106S/H107K/E111D/G112R/H294R) above, with S106T, K107H, D111E, R112G, S124P counted along it

[14] = biological target: [R127K] BB3* receptor (Homo sapiens, UniProt P32247, H294R/R127K); assay: 125I-peptide #1 competition binding, CHOP cells
[R127K] BB3* receptor, sequence (P32247 whole entry R127K/H294R): as the sequence (P32247 whole entry T106S/H107K/E111D/G112R/H294R) above, with S106T, K107H, D111E, R112G, R127K counted along it

[15] = biological target: [R127K] wild type BB3 receptor (Homo sapiens, UniProt P32247, R127K); assay: 125I-peptide #1 competition binding, CHOP cells
[R127K] wild type BB3 receptor, sequence (P32247 whole entry R127K): as the sequence (P32247 whole entry T106S/H107K/E111D/G112R/H294R) above, with S106T, K107H, D111E, R112G, R127K, R294H counted along it

[16] = biological target: [R127N] BB3* receptor (Homo sapiens, UniProt P32247, H294R/R127N); assay: 125I-peptide #1 competition binding, CHOP cells
[R127N] BB3* receptor, sequence (P32247 whole entry R127N/H294R): as the sequence (P32247 whole entry T106S/H107K/E111D/G112R/H294R) above, with S106T, K107H, D111E, R112G, R127N counted along it

[17] = biological target: [R127N] wild type BB3 receptor (Homo sapiens, UniProt P32247, R127N); assay: 125I-peptide #1 competition binding, CHOP cells
[R127N] wild type BB3 receptor, sequence (P32247 whole entry R127N): as the sequence (P32247 whole entry T106S/H107K/E111D/G112R/H294R) above, with S106T, K107H, D111E, R112G, R127N, R294H counted along it

[18] = biological target: [R127H] BB3* receptor (Homo sapiens, UniProt P32247, H294R/R127H); assay: 125I-peptide #1 competition binding, CHOP cells
[R127H] BB3* receptor, sequence (P32247 whole entry R127H/H294R): as the sequence (P32247 whole entry T106S/H107K/E111D/G112R/H294R) above, with S106T, K107H, D111E, R112G, R127H counted along it

[19] = biological target: [R127H] wild type BB3 receptor (Homo sapiens, UniProt P32247, R127H); assay: 125I-peptide #1 competition binding, CHOP cells
[R127H] wild type BB3 receptor, sequence (P32247 whole entry R127H): as the sequence (P32247 whole entry T106S/H107K/E111D/G112R/H294R) above, with S106T, K107H, D111E, R112G, R127H, R294H counted along it

[20] = biological target: BB3 and BB3* receptors and their mutants (Homo sapiens, UniProt P32247, H294R/R127H); settings: [R127H], background not stated (discussion)
BB3 and BB3* receptors and their mutants (Homo sapiens, UniProt P32247, H294R/R127H), sequence (P32247 whole entry R127H/H294R): as the sequence (P32247 whole entry T106S/H107K/E111D/G112R/H294R) above, with S106T, K107H, D111E, R112G, R127H counted along it

[21] = biological target: BB3 and BB3* receptors and their mutants (Homo sapiens, UniProt P32247, H294R/R127K); settings: [R127K], background not stated (discussion)
BB3 and BB3* receptors and their mutants (Homo sapiens, UniProt P32247, H294R/R127K), sequence (P32247 whole entry R127K/H294R): as the sequence (P32247 whole entry T106S/H107K/E111D/G112R/H294R) above, with S106T, K107H, D111E, R112G, R127K counted along it

[22] = system: BB3 and BB3* receptors and their mutants

decrease in affinity [1]: 377 fold and > 377 fold and > 400 fold | decrease in affinity [2]: 23 fold | decrease in affinity [4]: 54 fold | decrease in affinity [5]: 35 fold | decrease in affinity [6]: > 192 fold | decrease in affinity [7]: 4 fold | decrease in affinity [8]: 13 fold | decrease in affinity [9]: 250 fold | decrease in affinity [10]: 68 fold | decrease in affinity [11]: 4 fold | decrease in affinity [12]: 179 fold | decrease in affinity [13]: 54 fold | decrease in affinity [14]: 45 fold | decrease in affinity [15]: > 526 fold | decrease in affinity [16]: 78 fold | decrease in affinity [17]: 12 fold | decrease in affinity [18]: 192 fold | decrease in affinity [19]: 175 fold | decrease in affinity [20]: > 192 fold | decrease in affinity [21]: 45 fold
SMILES: CC(C)C[C@H](NC(=O)C[C@H](O)[C@H](CC1CCCCC1)NC(=O)[C@H](Cc1c[nH]cn1)NC(=O)[C@H](Cc1ccccc1)NC(=O)OC(C)(C)C)C(=O)NCc1cccc([N+](C)(C)C)c1 [Bantag-1, Boc-Phe-His-4-amino-5-cyclohexyl-2,4,5-trideoxypentonyl-Leu- (3-dimethylamino) benzylamide N-methylammonium trifluoroacetate]
increase in affinity [3]: 5 fold | decrease in affinity ([22]; E111D or G112R BB3 receptor mutants): 1 to 2.5 fold | loss in affinity ([22]; [G112R] in wild type and BB3* receptor): 2 fold and 2–3 fold | decrease in affinity ([22]; [H107F] and [H107Y] in BB3*): 7–16 fold | decrease in affinity ([22]; [H107K, E111D, G112R] in wild type and BB3*): 500 fold and > 500 fold | decrease in affinity ([22]; [H107K], BB3 and BB3* not separated): 60 fold and 35–54 fold and 50 fold | decrease in affinity ([22]; [H107N] in either BB3 or BB3*): > 58 fold | decrease in affinity ([22]; [H107W], background not separated): > 190 times | decrease in affinity ([22]; [H107Y] and [H107F] in either BB3 or BB3*): 4–16 fold and 5–17 fold | decrease in affinity ([22]; [L123I, R127Q] in wild type and BB3*): > 2,000 fold | decrease in affinity ([22]; [R127E] in wild type and BB3*): 188 fold and > 200 fold | decrease in affinity ([22]; [R127Q], [L123I] and [S124P] in wild type BB3): 233–536 fold | decrease in affinity ([22]; [R127Q], background not separated): 400 fold and > 390 fold and > 400 fold | Ki ([22]; read-out: Ki (range given), [G112R] in wild type and BB3* receptor): 11.6 to 16 nM | decrease in affinity ([22]; single EC1 amino acid substitutions alone): 1.4–54 fold
